Source: paper doi:10.1101/2022.10.27.513961v1 (bioRxiv, 2022)
Where a SMILES comes first, the peptide text is derived from it. Bridges are numbered along the chain shown (N, C = ends).

What was measured:
Format in all cases: cell-based
WM164 cells [1] = test: Cytotoxicity, resazurin assay
HT144 cells [2] = test: Cytotoxicity, resazurin assay; settings: HT144, cTI 0.5 to 3 µM over 100 days
WM164 cells [3] = test: Real-time cell analysis, xCELLigence impedance
HT144 cells [4] = test: Real-time cell analysis, xCELLigence impedance
WM164 cells [5] = test: Co-treatment of dabrafenib with peptide, resazurin assay; settings: drug-naïve WM164, drug (50 nM) or peptide (at IC50) added alone, 72 h
WM164 cells [6] = test: Lipidome analysis, shotgun tandem MS of lipid extracts
WM164 cells [7] = test: Microscopy during long-term treatment; settings: WM164, after 2 µM cTI for one week
HT144 cells [8] = test: Microscopy during long-term treatment; settings: HT144, treatment with cTI for 100 days

Compound: CC[C@H](C)[C@@H]1NC(=O)CNC(=O)[C@H](CCCNC(=N)N)NC(=O)[C@H](Cc2ccc(O)cc2)NC(=O)[C@@H]2CSSC[C@H](NC1=O)C(=O)N[C@@H](Cc1ccc(O)cc1)C(=O)N[C@@H](CCCNC(=N)N)C(=O)N[C@@H](CCCNC(=N)N)C(=O)N[C@H]1CSSC[C@H](NC(=O)[C@H](Cc3c[nH]c4ccccc34)NC(=O)[C@H](CCCCN)NC(=O)CNC(=O)[C@H](CCCNC(=N)N)NC1=O)C(=O)N[C@@H](Cc1ccccc1)C(=O)N[C@@H](CCCNC(=N)N)C(=O)N[C@@H](C(C)C)C(=O)N2 [cTI, cyclic tachyplesin I] (cyclo(CFRVCYRGICYRRCRGKW); disulfide 1-14, 5-10)
- cell death (WM164 cells [1]; 5 x10^3 WM164 cells seeded for 24 h, 3 µM peptide, resazurin): 50%
- development of resistance (WM164 cells [1]; WM164, cTI 0.5 to 3 µM over 100 days): did not develop resistance
- development of resistance (HT144 cells [2]): did not develop resistance
- reduction in impedance signal (WM164 cells [3]; 5 µM, 24 h): ~50%
- time to drop in the impedance to ∼0 (WM164 cells [3]; 10 µM): 2 to 3 h
- cell proliferation (WM164 cells [3]; 10^4 WM164 cells seeded for 24 h, 5 µM): ~50%
- reduction in impedance signal (HT144 cells [4]; 5 µM, 24 h): ~50%
- time to drop in the impedance to ∼0 (HT144 cells [4]; 10 µM): 2 to 3 h
- cell death (WM164 cells [5]): ~ 50%
- PC 30:0, Mean nmol/M cells (WM164 cells [6]; WM164, 1µM cTI_15d): 0.78 nmol/M cells
- PC 30:1, Mean nmol/M cells (WM164 cells [6]; WM164, 1µM cTI_15d): 0.42 nmol/M cells
- PC 32:0, Mean nmol/M cells (WM164 cells [6]; WM164, 1µM cTI_15d): 0.50 nmol/M cells
- PC 32:1, Mean nmol/M cells (WM164 cells [6]; WM164, 1µM cTI_15d): 3.15 nmol/M cells
- PC 32:2, Mean nmol/M cells (WM164 cells [6]; WM164, 1µM cTI_15d): 0.38 nmol/M cells
- PC 34:1, Mean nmol/M cells (WM164 cells [6]; WM164, 1µM cTI_15d): 5.61 nmol/M cells
- PC 34:2, Mean nmol/M cells (WM164 cells [6]; WM164, 1µM cTI_15d): 2.35 nmol/M cells
- PC 36:1, Mean nmol/M cells (WM164 cells [6]; WM164, 1µM cTI_15d): 0.86 nmol/M cells
- PC 36:2, Mean nmol/M cells (WM164 cells [6]; WM164, 1µM cTI_15d): 3.56 nmol/M cells
- PE 32:1, Mean nmol/M cells (WM164 cells [6]; WM164, 1µM cTI_15d): 0.21 nmol/M cells
- PE 34:1, Mean nmol/M cells (WM164 cells [6]; WM164, 1µM cTI_15d): 0.89 nmol/M cells
- PE 34:2, Mean nmol/M cells (WM164 cells [6]; WM164, 1µM cTI_15d): 0.71 nmol/M cells
- PE 36:1, Mean nmol/M cells (WM164 cells [6]; WM164, 1µM cTI_15d): 0.75 nmol/M cells
- PE 36:2, Mean nmol/M cells (WM164 cells [6]; WM164, 1µM cTI_15d): 1.48 nmol/M cells
- PE 36:3, Mean nmol/M cells (WM164 cells [6]; WM164, 1µM cTI_15d): 0.19 nmol/M cells
- PE 38:4, Mean nmol/M cells (WM164 cells [6]; WM164, 1µM cTI_15d): 0.27 nmol/M cells
- PE 38:5, Mean nmol/M cells (WM164 cells [6]; WM164, 1µM cTI_15d): 0.26 nmol/M cells
- PE 40:6, Mean nmol/M cells (WM164 cells [6]; WM164, 1µM cTI_15d): 0.16 nmol/M cells
- PI 34:1, Mean nmol/M cells (WM164 cells [6]; WM164, 1µM cTI_15d): 0.42 nmol/M cells
- PI 34:2, Mean nmol/M cells (WM164 cells [6]; WM164, 1µM cTI_15d): 0.29 nmol/M cells
- PI 36:1, Mean nmol/M cells (WM164 cells [6]; WM164, 1µM cTI_15d): 1.12 nmol/M cells
- PI 36:2, Mean nmol/M cells (WM164 cells [6]; WM164, 1µM cTI_15d): 1.12 nmol/M cells
- PI 38:2, Mean nmol/M cells (WM164 cells [6]; WM164, 1µM cTI_15d): 0.19 nmol/M cells
- PI 38:3, Mean nmol/M cells (WM164 cells [6]; WM164, 1µM cTI_15d): 0.34 nmol/M cells
- PI 38:4, Mean nmol/M cells (WM164 cells [6]; WM164, 1µM cTI_15d): 0.64 nmol/M cells
- PI 38:5, Mean nmol/M cells (WM164 cells [6]; WM164, 1µM cTI_15d): 0.22 nmol/M cells
- PC 30:0, Mean nmol/M cells (WM164 cells [6]; WM164, 2µM cTI_60d): 0.51 nmol/M cells
- PC 30:1, Mean nmol/M cells (WM164 cells [6]; WM164, 2µM cTI_60d): 0.27 nmol/M cells
- PC 32:0, Mean nmol/M cells (WM164 cells [6]; WM164, 2µM cTI_60d): 0.34 nmol/M cells
- PC 32:1, Mean nmol/M cells (WM164 cells [6]; WM164, 2µM cTI_60d): 1.93 nmol/M cells
- PC 32:2, Mean nmol/M cells (WM164 cells [6]; WM164, 2µM cTI_60d): 0.26 nmol/M cells
- PC 34:1, Mean nmol/M cells (WM164 cells [6]; WM164, 2µM cTI_60d): 4.19 nmol/M cells
- PC 34:2, Mean nmol/M cells (WM164 cells [6]; WM164, 2µM cTI_60d): 1.64 nmol/M cells
- PC 36:1, Mean nmol/M cells (WM164 cells [6]; WM164, 2µM cTI_60d): 0.82 nmol/M cells
- PC 36:2, Mean nmol/M cells (WM164 cells [6]; WM164, 2µM cTI_60d): 2.77 nmol/M cells
- PE 32:1, Mean nmol/M cells (WM164 cells [6]; WM164, 2µM cTI_60d): 0.16 nmol/M cells
- PE 34:1, Mean nmol/M cells (WM164 cells [6]; WM164, 2µM cTI_60d): 0.68 nmol/M cells
- PE 34:2, Mean nmol/M cells (WM164 cells [6]; WM164, 2µM cTI_60d): 0.71 nmol/M cells
- PE 36:1, Mean nmol/M cells (WM164 cells [6]; WM164, 2µM cTI_60d): 0.78 nmol/M cells
- PE 36:2, Mean nmol/M cells (WM164 cells [6]; WM164, 2µM cTI_60d): 1.83 nmol/M cells
- PE 36:3, Mean nmol/M cells (WM164 cells [6]; WM164, 2µM cTI_60d): 0.19 nmol/M cells
- PE 38:4, Mean nmol/M cells (WM164 cells [6]; WM164, 2µM cTI_60d): 0.28 nmol/M cells
- PE 38:5, Mean nmol/M cells (WM164 cells [6]; WM164, 2µM cTI_60d): 0.27 nmol/M cells
- PE 40:6, Mean nmol/M cells (WM164 cells [6]; WM164, 2µM cTI_60d): 0.17 nmol/M cells
- PI 34:1, Mean nmol/M cells (WM164 cells [6]; WM164, 2µM cTI_60d): 0.25 nmol/M cells
- PI 34:2, Mean nmol/M cells (WM164 cells [6]; WM164, 2µM cTI_60d): 0.17 nmol/M cells
- PI 36:1, Mean nmol/M cells (WM164 cells [6]; WM164, 2µM cTI_60d): 0.80 nmol/M cells
- PI 36:2, Mean nmol/M cells (WM164 cells [6]; WM164, 2µM cTI_60d): 0.73 nmol/M cells
- PI 38:2, Mean nmol/M cells (WM164 cells [6]; WM164, 2µM cTI_60d): 0.18 nmol/M cells
- PI 38:3, Mean nmol/M cells (WM164 cells [6]; WM164, 2µM cTI_60d): 0.26 nmol/M cells
- PI 38:4, Mean nmol/M cells (WM164 cells [6]; WM164, 2µM cTI_60d): 0.46 nmol/M cells
- PI 38:5, Mean nmol/M cells (WM164 cells [6]; WM164, 2µM cTI_60d): 0.12 nmol/M cells
- PC 30:0, Mean nmol/M cells (WM164 cells [6]; WM164, 3µM cTI_100d): 0.74 nmol/M cells
- PC 30:1, Mean nmol/M cells (WM164 cells [6]; WM164, 3µM cTI_100d): 0.44 nmol/M cells
- PC 32:0, Mean nmol/M cells (WM164 cells [6]; WM164, 3µM cTI_100d): 0.42 nmol/M cells
- PC 32:1, Mean nmol/M cells (WM164 cells [6]; WM164, 3µM cTI_100d): 3.17 nmol/M cells
- PC 32:2, Mean nmol/M cells (WM164 cells [6]; WM164, 3µM cTI_100d): 0.42 nmol/M cells
- PC 34:1, Mean nmol/M cells (WM164 cells [6]; WM164, 3µM cTI_100d): 5.27 nmol/M cells
- PC 34:2, Mean nmol/M cells (WM164 cells [6]; WM164, 3µM cTI_100d): 2.18 nmol/M cells
- PC 36:1, Mean nmol/M cells (WM164 cells [6]; WM164, 3µM cTI_100d): 0.90 nmol/M cells
- PC 36:2, Mean nmol/M cells (WM164 cells [6]; WM164, 3µM cTI_100d): 2.89 nmol/M cells
- PE 32:1, Mean nmol/M cells (WM164 cells [6]; WM164, 3µM cTI_100d): 0.26 nmol/M cells
- PE 34:1, Mean nmol/M cells (WM164 cells [6]; WM164, 3µM cTI_100d): 1.09 nmol/M cells
- PE 34:2, Mean nmol/M cells (WM164 cells [6]; WM164, 3µM cTI_100d): 1.08 nmol/M cells
- PE 36:1, Mean nmol/M cells (WM164 cells [6]; WM164, 3µM cTI_100d): 1.00 nmol/M cells
- PE 36:2, Mean nmol/M cells (WM164 cells [6]; WM164, 3µM cTI_100d): 2.05 nmol/M cells
- PE 36:3, Mean nmol/M cells (WM164 cells [6]; WM164, 3µM cTI_100d): 0.26 nmol/M cells
- PE 38:4, Mean nmol/M cells (WM164 cells [6]; WM164, 3µM cTI_100d): 0.33 nmol/M cells
- PE 38:5, Mean nmol/M cells (WM164 cells [6]; WM164, 3µM cTI_100d): 0.35 nmol/M cells
- PE 40:6, Mean nmol/M cells (WM164 cells [6]; WM164, 3µM cTI_100d): 0.19 nmol/M cells
- PI 34:1, Mean nmol/M cells (WM164 cells [6]; WM164, 3µM cTI_100d): 0.48 nmol/M cells
- PI 34:2, Mean nmol/M cells (WM164 cells [6]; WM164, 3µM cTI_100d): 0.30 nmol/M cells
- PI 36:1, Mean nmol/M cells (WM164 cells [6]; WM164, 3µM cTI_100d): 1.26 nmol/M cells
- PI 36:2, Mean nmol/M cells (WM164 cells [6]; WM164, 3µM cTI_100d): 1.19 nmol/M cells
- PI 38:2, Mean nmol/M cells (WM164 cells [6]; WM164, 3µM cTI_100d): 0.23 nmol/M cells
- PI 38:3, Mean nmol/M cells (WM164 cells [6]; WM164, 3µM cTI_100d): 0.35 nmol/M cells
- PI 38:4, Mean nmol/M cells (WM164 cells [6]; WM164, 3µM cTI_100d): 0.61 nmol/M cells
- PI 38:5, Mean nmol/M cells (WM164 cells [6]; WM164, 3µM cTI_100d): 0.22 nmol/M cells
- cell morphology (WM164 cells [7]): more elongated and less dendritic
- cell morphology (HT144 cells [8]): remained unchanged
